Measured values as given in patent publication US20160051527A1, “METHODS AND KITS FOR TREATING AND CLASSIFYING INDIVIDUALS AT RISK OF OR SUFFERING FROM A NEUROLOGICAL DYSFUNCTION OR DISORDER” (priority 2013, published 2016).

Tested on: patients with a single variant in the ChAT gene (340L>F or 510R>Q)
Assay: Clinical response to medications prior to sequencing in patients carrying a ChAT gene variant
Details: 2/2 patients, dampens opposing sympathetic activity

CC(C)NCC(O)COc1cccc2ccccc12 (stereo not shown) [propranolol]
clinical response: clinical improvement
